Data reported in patent publication US8594947B2, “Crystal structure of an angiotensin-converting enzyme (ACE) and uses thereof” (University of Bath, priority 2002, dated 2013).
Read-outs that look alike come from different tables or passages of the source.

Assays:
tACE [1] = target: T1, tACE (Homo sapiens, UniProt P12821); assay: Kinetic constants for tACE hydrolysis of hippuryl-L-histidyl-L-leucine (Hip-His-Leu); type: biochemical; conditions: cells expressing tACEΔ36NJ treated with the glucosidase I inhibitor
T1 construct: made in house; host or cells: CHO-K1 cells, stably transfected; soluble enzyme purified from the medium
Protocol: (§1) Soluble, recombinant tACE (wild-type […], ACEΔ36NJ (SEQ ID NO: 2) and ACE glycosylation mutants), is purified from conditioned media by affinity chromatography on a Sepharose-28-lisinopril affinity resin. The protein is quantitated by amino acid analysis and assayed for activity using the substrate hippuryl-L-histidyl-L-leucine , as described (Ehlers, MRE, Chen, Y—N, Riordan, JF (1991) Proc Natl Acad Sci USA 88, 1009-1013).
(§2) Assays are performed in 100 mM potassium phosphate pH 8.3 containing 300 mM NaCl. Initial velocities are calculated over a range of Hip-His-Leu concentrations (0.2-5.0 mM) under initial rate conditions and fit to the Michaelis-Menten equation. Km and Vmax values are determined by non-linear regression analysis.

[2] = cited from earlier work
tACE glycosylation = assay: Inhibition of tACE glycosylation in presence of tunicamycin (cellular ACE activity, Western blot); type: cell-based; conditions: CHO cells expressing tACE-wt, 5 μg/ml tunicamycin
Protocol: CHO cells expressing tACE-wt are grown to confluence in 6-well plates and induced overnight in 2% medium in the absence and presence of 5 μg/ml tunicamycin. Fresh medium is added and cells are grown in the absence and presence of 5 μg/ml tunicamycin. At 6, 8, 12, 16, 20 and 24 hours detergent-solubilised cell samples are collected. After separating the proteins on 10% SDS-PAGE they are immunodetected by Western blotting.
tACE-wt (SEQ ID NO: 1), tACEΔ36, tACEΔ36-g1, -g2, -g3, -g12, -g13, -g23, -g123 and -g1234 are immunodetected by Western blotting of cell lysates and harvested medium from transfected CHO cells. Proteins are separated on 10% SDS-PAGE and transferred to nitrocellulose membrane (Hybond-C, Amersham). The membrane is probed with a polyclonal rabbit anti-human tACE antibody. The membrane is developed using the ECL chemiluminescence kit (Amersham) and visualised on autoradiographic film, as per instructions.

tACE [3] = assay: Kinetic constants for tACE hydrolysis of hippuryl-L-histidyl-L-leucine (Hip-His-Leu); type: biochemical, human; conditions: hydrolysis of Hip-His-Leu
Protocol: as §1, §2

In the case of `CCCCN1C[C@H](O)[C@@H](O)[C@H](O)[C@H]1CO` [NB-DNJ, N-butyldeoxynojirimycin], the “Effect of treating the expressing cells on kinetic properties of the expressed enzymes” value (tACE [1]) is reported as “do not alter the kinetic properties”.

In the case of `CCOC(=O)[C@H](CCc1ccccc1)N[C@@H](C)C(=O)N1CCC[C@H]1C(=O)O` [enalapril], the “Risk of hospitalization for heart failure” value ([2]; similar black patients) is listed as “no such effect” and the “Risk of hospitalization for heart failure” value ([2]; white patients with left ventricular function) is listed as “significant reduction”.

In the case of tunicamycin, the “Formation of mature, glycosylated tACE-wt (Western blot)” value (tACE glycosylation) is reported as “partially inhibits” and the “Cellular tACE-wt activity in treated versus untreated cells” value (tACE glycosylation; data not shown) is reported as “approximately three-fold lower”.

B1: tACE-wt: wild-type human testis ACE (SEQ ID NO: 1) retaining its 36-residue N-terminus, transmembrane region and juxtamembrane stalk, expressed in CHO cells (protein, listed as Homo sapiens)
chain: SQQVTVTHGTSSQATTSSQTTTHQATAHQTSAQSPNLVTDEAEASKFVEEYDRTSQVVWNEYAEANWNYNTNITTETSKILLQKNMQIANHTLKYGTQARKFDVNQLQNTTIKRIIKKVQDLERAALPAQELEEYNKILLDMETTYSVATVCHPNGSCLQLEPDLTNVMATSRKYEDLLWAWEGWRDKAGRAILQFYPKYVELINQAARLNGYVDAGDSWRSMYETPSLEQDLERLFQELQPLYLNLHAYVRRALHRHYGAQHINLEGPIPAHLLGNMWAQTWSNIYDLVVPFPSAPSMDTTEAMLKQGWTPRRMFKEADDFFTSLGLLPVPPEFWNKSMLEKPTDGREVVCHASAWDFYNGKDFRIKQCTTVNLEDLVVAHHEMGHIQYFMQYKDLPVALREGANPGFHEAIGDVLALSVSTPKHLHSLNLLSSEGGSDEHDINFLMKMALDKIAFIPFSYLVDQWRWRVFDGSITKENYNQEWWSLRLKYQGLCPPVPRTQGDFDPGAKFHIPSSVPYIRYFVSFIIQFQFHEALCQAAGHTGPLHKCDIYQSKEAGQRLATAMKLGFSRPWPEAMQLITGQPNMSASAMLSYFKPLLDWLRTENELHGEKLGWPQYNWTPNSARSEGPLPDSGRVSFLGLDLDAQQARVGQWLLLFLGIALLVATLGLSQRLFSIRHRSLHRHSHGPQFGSEVELRHS
B1 showed a Km (tACE [3]; 100 mM potassium phosphate pH 8.3, 300 mM NaCl) of 2700 µM and a kcat (tACE [3]; calculated molecular mass of 100 kDa) of 193 s⁻¹.
